In US10239840B2, “Benzoazepine derivatives” (ViiV HEALTHCARE UK LIMITED, priority 2015, dated 2019) one finds IC50 data, which are given here for 20 compounds.

In general, IC50 refers to the concentration that inhibits the measured activity by half.

This experiment has as its system HIV. The experiment is described as follows: MT4 assay, antiviral HIV activity. In kind it is cell-based. The settings on record: MT-4 cells (HTLV-1 transformed), read-out at 96 hours with cell titer glo. The method, then: Antiviral HIV activity and cytotoxicity values for compounds of the invention from Table 1 were measured in parallel in the HTLV-1 transformed cell line MT-4 based on the method previously described (Hazen et al., 2007, In vitro antiviral activity of the novel, tyrosyl-based human immunodeficiency virus (HIV) type 1 protease inhibitor brecanavir (GW640385) in combination with other antiretrovirals and against a panel of protease inhibitor-resistant HIV (Hazen et al., “In vitro antiviral activity of the novel, tyrosyl-based human immunodeficiency virus (HIV) type 1 protease inhibitor brecanavir (GW640385) in combination with other antiretrovirals and against a panel of protease inhibitor-resistant HIV”, Antimicrob. Agents Chemother. 2007, 51: 3147-3154; and Pauwels et al., “Sensitive and rapid assay on MT-4 cells for the detection of antiviral compounds against the AIDS virus”, J. of Virological Methods 1987, 16: 171-185).
Luciferase activity was measured 96 hours later by adding a cell titer glo (Promega, Madison, Wis.). Percent inhibition of cell protection data was plotted relative to no compound control. Under the same condition, cytotoxicity of the compounds was determined using cell titer Glo™ (Promega, Madison, Wis.). IC50s were determined from a 10 point dose response curve using 3-4-fold serial dilution for each compound, which spans a concentration range >1000 fold.
These values are plotted against the molar compound concentrations using the standard four parameter logistic equation: y=((Vmax*x^n)/(K^n+x^n)+Y2
Y2=minimum γ n=slope factor
Vmax=maximum γ x=compound concentration [M]
(In ATP-based viability assays light output follows the ATP content of the culture.)
Turning to `Cc1c(-c2c(C)c3c(c(C)c2[C@H](OC(C)(C)C)C(=O)O)CCN(C(=O)c2cccc(F)c2)CC3)cc(Cl)c2c1CCCO2` (atropisomer, axis not shown; (M)) [Example 1, (S)-2-(tert-butoxy)-2-((M)-8-(8-chloro-5-methylchroman-6-yl)-3-(3-fluorobenzoyl)-6,9-dimethyl-2,3,4,5-tetrahydro-1H-benzo[d]azepin-7-yl)acetic Acid], the IC50 was found to be 27 nM.
Under `Cc1c(-c2c(C)c3c(c(C)c2[C@H](OC(C)(C)C)C(=O)O)CCN(C(=O)c2cccc(F)c2)CC3)cc(F)c2c1CCCO2` (atropisomer, axis not shown; (M)) [Example 5, (2S)-2-(tert-butoxy)-2-((M)-8-(8-fluoro-5-methylchroman-6-yl)-3-(3-fluorobenzoyl)-6,9-dimethyl-2,3,4,5-tetrahydro-1H-benzo[d]azepin-7-yl)acetic Acid] stands 5 nM.
Under `Cc1c(-c2c(C)c3c(c(C)c2[C@H](OC(C)(C)C)C(=O)O)CCN(C(=O)CC(C)(C)C)CC3)cc(F)c2c1CCCO2` (atropisomer, axis not shown; (M)) [Example 6, (S)-2-(tert-butoxy)-2-((M)-3-(3,3-dimethylbutanoyl)-8-(8-fluoro-5-methylchroman-6-yl)-6,9-dimethyl-2,3,4,5-tetrahydro-1H-benzo[d]azepin-7-yl)acetic Acid] stands 60 nM; under `COc1ccc(F)cc1C(=O)N1CCc2c(C)c(-c3cc(F)c4c(c3C)CCCO4)c([C@H](OC(C)(C)C)C(=O)O)c(C)c2CC1` (atropisomer, axis not shown; (M)) [Example 7, (S)-2-(tert-butoxy)-2-((M)-3-(5-fluoro-2-methoxybenzoyl)-8-(8-fluoro-5-methylchroman-6-yl)-6,9-dimethyl-2,3,4,5-tetrahydro-1H-benzo[d]azepin-7-yl)acetic Acid], 5 nM; under `COc1ccc(C)cc1C(=O)N1CCc2c(C)c(-c3cc(F)c4c(c3C)CCCO4)c([C@H](OC(C)(C)C)C(=O)O)c(C)c2CC1` (atropisomer, axis not shown; (M)) [Example 8, (S)-2-(tert-butoxy)-2-((M)-8-(8-fluoro-5-methylchroman-6-yl)-3-(2-methoxy-5-methylbenzoyl)-6,9-dimethyl-2,3,4,5-tetrahydro-1H-benzo[d]azepin-7-yl)acetic Acid], 4 nM.
On to `COc1ccc(C(=O)N2CCc3c(C)c(-c4cc(F)c5c(c4C)CCCO5)c([C@H](OC(C)(C)C)C(=O)O)c(C)c3CC2)cc1C` (atropisomer, axis not shown; (M)) [Example 9, (S)-2-(tert-butoxy)-2-((M)-8-(8-fluoro-5-methylchroman-6-yl)-3-(4-methoxy-3-methylbenzoyl)-6,9-dimethyl-2,3,4,5-tetrahydro-1H-benzo[d]azepin-7-yl)acetic Acid], for which the IC50 came out at 14 nM.
Next, `COc1c(F)cccc1C(=O)N1CCc2c(C)c(-c3cc(F)c4c(c3C)CCCO4)c([C@H](OC(C)(C)C)C(=O)O)c(C)c2CC1` (atropisomer, axis not shown; (M)) [Example 10, (S)-2-(tert-butoxy)-2-((M)-3-(3-fluoro-2-methoxybenzoyl)-8-(8-fluoro-5-methylchroman-6-yl)-6,9-dimethyl-2,3,4,5-tetrahydro-1H-benzo[d]azepin-7-yl)acetic Acid]: 5 nM; `Cc1c(-c2c(C)c3c(c(C)c2[C@H](OC(C)(C)C)C(=O)O)CCN(C(=O)c2cccc4c2OCC4)CC3)cc(F)c2c1CCCO2` (atropisomer, axis not shown; (M)) [Example 11, (S)-2-(tert-butoxy)-2-((M)-3-(2,3-dihydrobenzofuran-7-carbonyl)-8-(8-fluoro-5-methylchroman-6-yl)-6,9-dimethyl-2,3,4,5-tetrahydro-1H-benzo[d]azepin-7-yl)acetic Acid]: 9 nM.
Under `Cc1c(-c2c(C)c3c(c(C)c2[C@H](OC(C)(C)C)C(=O)O)CCN(C(=O)C2CCCCC2)CC3)cc(F)c2c1CCCO2` (atropisomer, axis not shown; (M)) [Example 12, (S)-2-(tert-butoxy)-2-((M)-3-(cyclohexanecarbonyl)-8-(8-fluoro-5-methylchroman-6-yl)-6,9-dimethyl-2,3,4,5-tetrahydro-1H-benzo[d]azepin-7-yl)acetic Acid] stands 19 nM.
Under `COc1cc(C(=O)N2CCc3c(C)c(-c4cc(F)c5c(c4C)CCCO5)c([C@H](OC(C)(C)C)C(=O)O)c(C)c3CC2)ccc1F` (atropisomer, axis not shown; (M)) [Example 13, (S)-2-(tert-butoxy)-2-((M)-3-(4-fluoro-3-methoxybenzoyl)-8-(8-fluoro-5-methylchroman-6-yl)-6,9-dimethyl-2,3,4,5-tetrahydro-1H-benzo[d]azepin-7-yl)acetic Acid] stands 4 nM.
For the compound `Cc1c(-c2c(C)c3c(c(C)c2[C@H](OC(C)(C)C)C(=O)O)CCN(C(=O)C(=O)N2CCCCC2)CC3)cc(F)c2c1CCCO2` (atropisomer, axis not shown; (M)) [Example 14, (S)-2-(tert-butoxy)-2-((M)-8-(8-fluoro-5-methylchroman-6-yl)-6,9-dimethyl-3-(2-oxo-2-(piperidin-1-yl)acetyl)-2,3,4,5-tetrahydro-1H-benzo[d]azepin-7-yl)acetic Acid], the IC50 turned out to be 17 nM.
Under `Cc1c(-c2c(C)c3c(c(C)c2[C@H](OC(C)(C)C)C(=O)O)CCN(Cc2cccc(F)c2)CC3)cc(F)c2c1CCCO2` (atropisomer, axis not shown; (M)) [Example 15, (S)-2-(tert-butoxy)-2-((M)-8-(8-fluoro-5-methylchroman-6-yl)-3-(3-fluorobenzyl)-6,9-dimethyl-2,3,4,5-tetrahydro-1H-benzo[d]azepin-7-yl)acetic Acid] stands 77 nM.
Under `Cc1c(-c2c(C)c3c(c(C)c2[C@H](OC(C)(C)C)C(=O)O)CCN(CCC2CCCCC2)CC3)cc(F)c2c1CCCO2` (atropisomer, axis not shown; (M)) [Example 16, (2S)-2-(tert-butoxy)-2-((M)-3-(2-cyclohexylethyl)-8-(8-fluoro-5-methylchroman-6-yl)-6,9-dimethyl-2,3,4,5-tetrahydro-1H-benzo[d]azepin-7-yl)acetic Acid] stands 13 nM; under `Cc1c(-c2c(C)c3c(c(C)c2[C@H](OC(C)(C)C)C(=O)O)CCN(CC2CCCCC2)CC3)cc(F)c2c1CCCO2` (atropisomer, axis not shown; (M)) [Example 17, (S)-2-(tert-butoxy)-2-((M)-3-(cyclohexylmethyl)-8-(8-fluoro-5-methylchroman-6-yl)-6,9-dimethyl-2,3,4,5-tetrahydro-1H-benzo[d]azepin-7-yl)acetic Acid], 10 nM; under `Cc1c(-c2c(C)c3c(c(C)c2[C@H](OC(C)(C)C)C(=O)O)CCN(C2CCCCC2)CC3)cc(F)c2c1CCCO2` (atropisomer, axis not shown; (M)) [Example 18, (2S)-2-(tert-butoxy)-2-((M)-3-cyclohexyl-8-(8-fluoro-5-methylchroman-6-yl)-6,9-dimethyl-2,3,4,5-tetrahydro-1H-benzo[d]azepin-7-yl)acetic Acid], 13 nM.
As to `Cc1c(-c2c(C)c3c(c(C)c2[C@H](OC(C)(C)C)C(=O)O)CCN(c2ccccc2)CC3)cc(F)c2c1CCCO2` (atropisomer, axis not shown; (M)) [Example 19, (2S)-2-(tert-butoxy)-2-((M)-8-(8-fluoro-5-methylchroman-6-yl)-6,9-dimethyl-3-phenyl-2,3,4,5-tetrahydro-1H-benzo[d]azepin-7-yl)acetic Acid], the IC50 worked out at 92 nM.
Next, `Cc1c(-c2c(C)c3c(c(C)c2[C@H](OC(C)(C)C)C(=O)O)CCN(S(=O)(=O)C2CCCCC2)CC3)cc(F)c2c1CCCO2` (atropisomer, axis not shown; (M)) [Example 20, (2S)-2-(tert-butoxy)-2-((M)-3-(cyclohexylsulfonyl)-8-(8-fluoro-5-methylchroman-6-yl)-6,9-dimethyl-2,3,4,5-tetrahydro-1H-benzo[d]azepin-7-yl)acetic Acid]: 42 nM.
On to `Cc1c(-c2c(C)c3c(c(C)c2[C@H](OC(C)(C)C)C(=O)O)CCN(S(=O)(=O)N2CCCCC2)CC3)cc(F)c2c1CCCO2` (atropisomer, axis not shown; (M)) [Example 21, (2S)-2-(tert-butoxy)-2-((M)-8-(8-fluoro-5-methylchroman-6-yl)-6,9-dimethyl-3-(piperidin-1-ylsulfonyl)-2,3,4,5-tetrahydro-1H-benzo[d]azepin-7-yl)acetic Acid], for which the IC50 was determined as 8 nM.
Under `Cc1c(-c2c(C)c3c(c(C)c2[C@H](OC(C)(C)C)C(=O)O)CCN(C(=O)N2CCCCC2)CC3)cc(F)c2c1CCCO2` (atropisomer, axis not shown; (M)) [Example 22, (2S)-2-(tert-butoxy)-2-((M)-8-(8-fluoro-5-methylchroman-6-yl)-6,9-dimethyl-3-(piperidine-1-carbonyl)-2,3,4,5-tetrahydro-1H-benzo[d]azepin-7-yl)acetic Acid] stands 9 nM.
Under `COc1ccc(-c2c(C)c3c(c(C)c2[C@H](OC(C)(C)C)C(=O)O)CCN(C(=O)c2cccc(F)c2)CC3)cc1` [Example 2, (S)-2-(tert-butoxy)-2-(3-(3-fluorobenzoyl)-8-(4-methoxyphenyl)-6,9-dimethyl-2,3,4,5-tetrahydro-1H-benzo[d]azepin-7-yl)acetic Acid] stands 76 nM.
